Patent US5919457A, “TXU-5/B53-PAP antiviral biotherapeutic agent for the treatment of AIDS” (priority 1996, dated 1999)
Where “and” joins values, the source holds several entries; their conditions need not be identical. Equal entries are not always repeated.

What was measured:
[1] = test system: HIV-1 isolate G-9106 (zidovudine-resistant); conditions: read-out: IC50 (concentration at which 50% of the reverse transcriptase activity is inhibited); cited from earlier work
[2] = test system: HIV-1; parameters: species or system Hu-PBL-SCID mice; conditions: mouse, in vivo
Experimental: Mutant C.B 17 mice are used as model systems to examine the in vivo homing, engraftment, and growth patterns of normal and malignant human hematopoictic cells. Lapidot et al., Blood, 80, 32a (1992). […] Mosier et al., Science, 251, 791 (1991). […] Mosier et al., cited supra. Hu-PBL-SCID mice were generated as described previously. Mosier et al., cited supra. Non-toxic doses of TXU-5/B53-PAP (20%-50% of LD10) were administered intraperitoneally by injecting half of the total dose as a bolus and delivering the remainder i.p. over 2 weeks using Alzet micro-osmotic pumps.
Two weeks after infection with HIV-1, mice were electively killed and fresh peritoneal lavage cells as well as spleen cells were isolated, cocultured with phytohemagglutinin(PHA)-stimulated human peripheral blood mononuclear cells from an HIV-1 antibody negative donor, and culture supernatants were tested every 3-4 days for a maximum of 28 days for the presence of HIV-1 antigen with a commercially available enzyme immunoassay (Abbott Laboratories, North Chicago, Ill.) that detects primarily the core p24 antigen of HIV-1, as previously described. Goudsmit et al., J. Infectious Diseases, 155, 558 (1987). In addition to this culture method, DNA was also isolated from the peritoneal lavage cells as well as splenocytes for detection of HIV-1 DNA by PCR amplification of a 115 b.p. sequence in the gag region of the HIV-1 genome using two 29-base oligonucleotide primers, SK38 and SK39, that flank the region to be amplified. Ou C-Y et al., Science, 239, 295 (1988) DNA samples were also examined for the presence of human DNA by PCR amplification of a 110-bp fragment from the first exon of the human β-globin gene using two 20-base oligonucleotide primers, PCO3 and PCO4, that flank the region to be amplified, as previously described by Uckun et al. in Blood, 79, 2201 (1992).

[3] = test system: HIV-1; parameters: species or system Hu-PBL-SCID mice; conditions: mouse, in vivo; remark: listed apart in the source
[4] = test system: HIV-1 isolate G-6912 (zidovudine-resistant); conditions: read-out: IC50 (concentration at which 50% of the reverse transcriptase activity is inhibited); cited from earlier work

**Q.** For `Cc1cn([C@H]2C[C@H](N=[N+]=[N-])[C@@H](CO)O2)c(=O)[nH]c1=O` [ZDV, zidovudine], which IC50 [1] is on record?
**A.** 8.7 µM

**Q.** And the “Hu-PBL-SCID mice HIV-1 negative” value [2]?
**A.** 3 of 10

**Q.** What about the “PCR + Cx: mice PCR-positive and culture-positive (footnote c)” value [2] of the same compound?
**A.** 4/8 and 4

**Q.** What about the “PCR + Cx: mice PCR-positive but culture-negative (footnote b)” value [2] of the same compound?
**A.** 4/8 and 3

**Q.** And the “PCR Only: PCR- mice/analyzed” value [2]?
**A.** 2/2

**Q.** And the “Peritoneal Lavage Cells PCR+ (mice positive/analyzed)” value [2]?
**A.** 7/10

**Q.** And the “Peritoneal Lavage and Spleen Mixed Cx+ (cultures positive/analyzed)” value [2]?
**A.** 4/8

**Q.** What about the “Spleen Cells PCR+ (mice positive/analyzed)” value [2] of the same compound?
**A.** 5/10

**Q.** What about the “gp120 on CD4+ lymphocytes from the peritoneal cavity (flow cytometry)” value [3] of the same compound?
**A.** presence of gpl120 on CD4+ cells

**Q.** What about the IC50 [4] of the same compound?
**A.** 1.5 µM
